Results published in patent US20240426776A1, “RAPID DIFFERENTIATION OF ANTIBIOTIC-SUSCEPTIBLE AND -RESISTANT BACTERIA THROUGH MEDIATED EXTRACELLULAR ELECTRON TRANSFER” (priority 2021, published 2024).
Values after ≈ are worked out from the molar mass of the structure shown. Values joined by “and” are separate entries in the source; they are usually repeats but may differ in a detail not shown here. Equal values may be shown once. Read-outs that look alike come from different tables or passages of the source. Marks after values point to notes of the source that are not given here.

Experiments:
[1] = tested on: Gram-positive 1 ATCC 29213, Gram-positive 2 BAA-1026; assay: Standard procedure confirming blinded test (susceptibility, MIC, analysis time); format: cell-based; parameters: key to Standard procedure susceptibility or resistance (second symbol of cell): S: The standard procedure established susceptibility or resistance; R: The standard procedure established susceptibility or resistance
Experimental: (§1) Both Gram-positive strains were correctly classified using 2×(12 μg/mL oxacillin) in <120 min (97±45 min and 103±33 min). The Gram-negative strains were also correctly classified after increasing concentrations of imipenem from 2× to 20×(12 to 120 μg/mL imipenem). […] These phenotypic results were confirmed with results of standard procedure known to those skilled in the art and are included in Table 4 below, wherein READAS(S) susceptibility was defined by an ASIn≥0.4; (R) resistant was defined by an ASIn<0.4; analysis time shown in minutes. The standard procedure established susceptibility or resistance, MIC in μg/mL, and analysis time shown in hours.

[2] = tested on: Staphylococcus aureus (strains 29213 and 43300); details: cited from earlier work
[3] = tested on: Gram-positive 1 ATCC 29213, Gram-positive 2 BAA-1026; assay: READAS operator blinded test; format: cell-based; details: oxacillin 2× (12 μg/mL); for ASIn: OD600=0.1
Experimental: Tests were conducted for which the species or resistance phenotype was not known beyond the fact that one set was a Gram-positive and the other Gram-negative, and the antibiotics to be tested were oxacillin and imipenem, respectively. The isolates were provided as coded streak plates. Because the species were unknown, the breakpoint concentration of oxacillin and imipenem were estimated from the known breakpoints of the four previously tested strains (as shown in Table 1; 6 μg/mL for oxacillin, S. aureus and 6 μg/mL imipenem for Gram-negative strains). Following the decision methodology for determining antibiotic susceptibility and resistance of READAS, the strains were first tested with 2× the resistance breakpoint concentration (12 μg/mL oxacillin or imipenem) and the ASI2 was measured. This was increased up to 24× the resistance breakpoint concentration. If ASI2≥0.4 then the strain was considered susceptible. […] If neither strain achieved an ASI2≥0.4, 24× the resistance breakpoint concentration was tested and the ASI24 was measured.
As another example method of operation, operator blinded tests were conducted using susceptible and resistant strains of Gram-positive and -negative bacteria. Because the species identification was unknown, […] oxacillin was chosen as the estimated resistance breakpoint for the Gram-positive strain and 6 μg/mL imipenem was initially chosen as the resistance breakpoint for the Gram-negative strain. The stains selected for this example method of operation include Gram-positive 1 ATCC 29213, Gram-positive 2 BAA-1026, Gram-negative 1 AR55 and Gram-negative 2 AR58 with cultures of OD600=0.1, for simplicity.
as §1

[4] = tested on: Staphylococcus aureus (strains 29213 and 43300); assay: READAS electrochemical current response with PMS mediator (ASIn); format: cell-based; details: for ASIn (antibiotic susceptibility index), single replicates: oxacillin 20× breakpoint (120 μg/mL), ASI20, 30° C., 15 μM PMS, 0.1 OD600
Experimental: Each measurement was replicated at least four times.
(S. aureus experiments) or 37° C. (all others) MH media.
The current responses measured follows a sigmoidal curve structure.
As a second example method of operation, the S. aureus strains selected from Table 2 were assessed. Initially, a 2×CLSI resistance breakpoint concentrations for two antibiotics oxacillin (12 μg/mL) and tobramycin (32 μg/mL) were used for the example method of operation. The ASI2<0.4 and it was concluded that the concentration of the antibiotics was insufficient to classify the strains as antibiotic-susceptible or -resistant. S. aureus was then treated with 4×, 6×, 8×, 10×, and 20× the breakpoint concentration of oxacillin and was compared to the control as depicted in FIG. 8A. […] S. aureus was also treated with 4× and 10× the breakpoint concentration of tobramycin and was compared to the control depicted in FIG. 8B. […] The efficacy of antibiotic was proportional to the concentration when a high cell density (1.1×10^8 CFU/mL) was used.
The ASIn analysis time for classifying the strains as resistant or susceptible for tobramycin treatment was 33-78 min which was 30 min less than needed for detecting oxacillin susceptibility which required 60-96 min.

[5] = tested on: Staphylococcus aureus (strains 29213 and 43300); assay: Microdilution antibiotic susceptibility assay (MIC, CLSI guidelines); format: cell-based; details: for MIC: Staphylococcus aureus, MH media, oxacillin: 30° C., 18-24 h, 2% NaCl, read-out: estimated minimum inhibitory concentration from this study
Experimental: Testing for S. aureus susceptibility to oxacillin differed with incubation at 30° C. for 18-24 h in MH media supplemented with 2% NaCl.
Values listed in Table 2 below include the estimated minimum inhibitory concentration from this study (μg/mL), the determination of(S) sensitive or (R) resistant microbes according to CLSI criteria, and the CLSI guidelines (μg/mL) for the species being tested. Empty cells were not evaluated.

A. baumannii strain 78 = assay: Absorbance growth curves on increasing concentration of the electron transfer mediator; format: cell-based, Acinetobacter baumannii; details: PMS concentrations higher than 15 μM; MH media; FIG. 3B
Experimental: […] The wells were inoculated to 0.1 OD600 for a total volume of 200 μL. The plates were continuously mixed by an orbital motion and maintained at 37° C. or 30° C. for S. aureus and oxacillin. Absorbance growth curves were recorded at 600 nm for 24 h and growth curves were presented as the average of three technical replicates with standard deviation.
Error bars represent standard deviation of three replicates. With this PMS concentration of 15 μM, Gram-negative species of bacteria with OD600=0.1 (approximately 10^7 and 10^8 cells per mL; Table 2) consistently had analysis times in less than 90 min, as illustrated by FIG. 3C. The current magnitude is shown to increase with increasing cell density while the response time is seen to be decreased with increasing cell density. Error bars are the standard deviation of four replicates in FIG. 3C. Increasing the cell density also contributed to the “inoculum effect” of antibiotic efficacy resulting in the need for higher concentrations of antibiotics to differentiate sensitive and resistant strains.

SMILES | MIC ([1]; Gram-positive 1 (ATCC 29213)) [µg/mL] | Standard procedure susceptibility or resistance (second symbol of cell) ([1]; Gram-positive 1 (ATCC 29213)) | MIC ([1]; Gram-positive 2 (BAA-1026)) [µg/mL] | Standard procedure susceptibility or resistance (second symbol of cell) ([1]; Gram-positive 2 (BAA-1026)) | CLSI guidelines (resistance breakpoint) for the species [2] [µg/mL] | READAS susceptibility (first symbol of cell) ([3]; Gram-positive 1 (ATCC 29213)) | ASIn ([3]; Gram-positive 1 (ATCC 29213)) | READAS susceptibility (first symbol of cell) ([3]; Gram-positive 2 (BAA-1026)) | ASIn ([3]; Gram-positive 2 (BAA-1026)) | current response with increasing antibiotic concentration ([4]; oxacillin 4×, 6×, 8×, 10×, 20× breakpoint (FIG. 8A), tobramycin 4× and 10× (FIG. 8B), […]10^8 CFU/mL) | ASIn (antibiotic susceptibility index), single replicates ([4]; strain 29213 (susceptible)) | average ASI20 (±SE) ([4]; strain 43300 (resistant), oxacillin 20× (120 μg/mL)) | ASIn (antibiotic susceptibility index), single replicates ([4]; strain 43300 (resistant)) | MIC ([5]; strain 29213) [µg/mL] | MIC ([5]; strain 43300) [µg/mL] | sensitive or resistant according to CLSI criteria ([5]; strain 29213) | sensitive or resistant according to CLSI criteria ([5]; strain 43300) | inhibition of bacterial growth by the electron transfer mediator (A. baumannii strain 78)
Cc1onc(-c2ccccc2)c1C(=O)N[C@@H]1C(=O)N2[C@@H]1SC(C)(C)[C@@H]2C(=O)O [Oxacillin, oxacillin] | 0.5 (≈ 1.25 µM) | S/S | ≥ 4 | R/R | 6 | S/S (READAS(S) susceptibility was defined by an ASIn≥0.4) | 0.55 ± 0.14^b | R/R ((R) resistant was defined by an ASIn<0.4) | −0.04 ± 0.19^b | decreased with increasing oxacillin concentration except at low doses where no effect or an increase in the current is observed | 0.4 and 0.63 and 0.59 | 0.17±0.13 | 0.4 and 0.63 and 0.59 | 0.5 (≈ 1.25 µM) | 32 (≈ 79.7 µM) | S | R | –
COS(=O)(=O)[O-].C[n+]1c2ccccc2nc2ccccc21 [PMS, phenazine methosulfate] | – | – | – | – | – | – | – | – | – | – | – | – | – | – | – | – | – | higher concentrations produced variable degrees of inhibition between strains
